Measured values taken from the OligoGym collection.
Where “and” joins values, the source holds several entries; their conditions need not be identical. Identical values can stand only once. After the bases stand the sugars from the 5' end (letter, count) and the backbone: PS all phosphorothioate, else s phosphorothioate and o phosphodiester by linkage. Methylation of C is not given here. e = 2'-O-(2-methoxyethyl) (MOE); k = constrained ethyl (cEt); d = 2'-deoxy (DNA)

Target: KRAS
Details: ASO

| Sequence | target mRNA inhibition (A431, 2 µM) | further results |
| --- | --- | --- |
| AAAAAAAAATTAATGT (sugars k3 d10 k3, PS) | 16% |  |
| AAAAAAATTAATGTCT (sugars k3 d10 k3, PS) | 7% |  |
| AAAAGTGTTTATGCAA (sugars k3 d10 k3, PS) | 32% |  |
| AAAGTGTTTATGCAAT (sugars k3 d10 k3, PS) | 29% |  |
| AAATTAATGTCTTGGC (sugars k3 d10 k3, PS) | 47% |  |
| AACAAATGCTAATAAT (sugars k3 d10 k3, PS) | 0% |  |
| AACCAGTGTTAAGAGA (sugars k3 d10 k3, PS) | 35% |  |
| AATAATCCCCATTTCA (sugars k3 d10 k3, PS) | 16% |  |
| AATGGTGAATATCTTC (sugars k3 d10 k3, PS) | 50% | target mRNA inhibition (A431, 0.037 µM): 58%; target mRNA inhibition (A431, 5 µM): 97% and 90%; target mRNA inhibition (NCI-H460, 0.037 µM): 33.3% |
| ACAAATGCTAATAATT (sugars k3 d10 k3, PS) | 1% |  |
| ACCAGTGTTAAGAGAA (sugars kdddddddddkekeke, PS) | 50% |  |
| ACCAGTGTTAAGAGAA (sugars kkkdddddddddkeke, PS) | 40% |  |
| ACCAGTGTTAAGAGAA (sugars kkkddddddddkekek, PS) | 51% |  |
| ACCATTCAAAGTTCAC (sugars kkdddddddddkekek, PS) | 36% |  |
| ACCATTCAAAGTTCAC (sugars kkkddddddddkdkdk, PS) | 12% |  |
| ACTTGAAAAGTGTTTA (sugars k3 d10 k3, PS) | 16% |  |
| ACTTGTACTAGTATGC (sugars k3 d10 k3, PS) | 51% |  |
| AGATTGTGCTGAGCTT (sugars kkdddddddddkekek, PS) | 38% |  |
| AGATTGTGCTGAGCTT (sugars kkddddddddkekekk, PS) | 0% |  |
| AGATTGTGCTGAGCTT (sugars kkkdddddddddkeke, PS) | 43% |  |
| AGATTGTGCTGAGCTT (sugars kkkddddddddkekek, PS) | 26% |  |

| Sequence | target mRNA inhibition (A431, 2 µM) | further results |
| --- | --- | --- |
| AGCTATTAGGAGTCTT (sugars k3 d10 k3, PS) | 35% |  |
| AGGAGTCTTTATAGTA (sugars k3 d9 k3 e1, PS) | 6% |  |
| AGGAGTCTTTATAGTA (sugars kdddddddddkekeke, PS) | 24% |  |
| AGGAGTCTTTATAGTA (sugars kkkdddddddddkeke, PS) | 31% |  |
| AGGCAAGATGACACTA (sugars k3 d10 k3, PS) | 21% |  |
| AGGCATTGCTAGTTCA (sugars k3 d10 k3, PS) | 55% |  |
| AGTCTATTTCAGGCGG (sugars k3 d10 k3, PS) |  | target mRNA inhibition (A431, 5 µM): 50% |
| AGTGTGACTCAGTTAA (sugars k3 d10 k3, PS) | 53% |  |
| AGTGTGACTCAGTTAA (sugars kkdddddddddkekek, PS) | 48% |  |
| ATCTTGTTGAGCTATC (sugars k3 d10 k3, PS) | 40% |  |
| ATGCTAATAATTTAGT (sugars k3 d10 k3, PS) | 11% |  |
| ATGCTGTGAAACTCTC (sugars k3 d10 k3, PS) | 58% and 52% and 39% | target mRNA inhibition (A431, 0.185 µM): 26%; target mRNA inhibition (A431, 0.556 µM): 42%; target mRNA inhibition (A431, 1.667 µM): 47%; target mRNA inhibition (A431, 5 µM): 72% |
| ATGCTGTGAAACTCTC (sugars kkdddddddddkekek, PS) | 16% |  |
| ATGGTGAATATCTTCA (sugars k3 d10 k3, PS) | 64% | target mRNA inhibition (A431, 1.667 µM): 45% and 31%; target mRNA inhibition (A431, 5 µM): 70% and 65% |
| ATGGTGTAACATAGGT (sugars k3 d10 k3, PS) | 59% and 47% and 52% | target mRNA inhibition (A431, 0.185 µM): 17%; target mRNA inhibition (A431, 0.556 µM): 36%; target mRNA inhibition (A431, 1.667 µM): 59%; target mRNA inhibition (A431, 5 µM): 75% |
| ATGGTGTAACATAGGT (sugars kddddddddddkekek, PS) | 47% |  |
| ATGGTGTAACATAGGT (sugars kkddddddddkekekk, PS) | 40% |  |
| ATGGTGTAACATAGGT (sugars kkkddddddddkekek, PS) | 43% |  |
| ATGTAGGGCATTTCTG (sugars k3 d10 k3, PS) | 9% |  |
| ATTAGGAGTCTTTATA (sugars k3 d10 k3, PS) | 20% |  |
